Source: patent publication US7943340B2, “Fungal dipeptidyl peptidase IV (DPPIV) enzyme for reagent use” (priority 2003, dated 2011)
Where two headings read alike, the source gives them in different places. Where a SMILES comes first, the peptide text is derived from it. [ ]: non-standard residue; d: D form. The star is where a group is joined. Sta = CC(C)C[C@H](N)[C@@H](O)CC(=O)O; Isovaleryl = CC(C)CC(=O)*

Assays:
[1] = system: fuLAP2; format: biochemical, Aspergillus fumigatus; details: for fuLAP2 hydrolytic activity, percentage of control without any cation / fuLAP2 hydrolytic activity, percentage of control without inhibitor: Leu-MCA substrate
Procedure: (§1) Inhibitors and metallic cations were pre-incubated with the enzymes for 15 min at 37° C. Then, Leu-AMC at a 5 mM final concentration was added. After further incubation for 60 min, enzyme activity was measured as described above. The inhibitors and their concentrations tested purified LAPs were: 500 μM amastatin (Bachem), 40 μM benzamidine (Sigma), 500 μM bestatin (Bachem), 5 mM/l mM EDTA (Sigma). 100 μM E-64 (L-trans-epoxysuccinyl-leu-4-guanidinobutylamide) (Bachem), 100 μM leupeptin (Sigma), 5 mM/1 mM ortho-phenanthroline (Sigma), 500 μM p-chloromercuribenzoic acid (Sigma), 100 μM pepstatin A (Sigma), 40 μM PMSF (Sigma), 20 μM TLCK (Roche Diagnostics), and 20 μM TPCK (Roche Diagnostics).

[2] = target: T1, pkLAP (microsomal LAP from porcine kidney) (Sus scrofa, UniProt P15145); assay: Effect of chemical reagents (inhibitors, metallic cations) on LAP activity with Leu-AMC; format: biochemical; details: for pkLAP hydrolytic activity, percentage of control without any cation / pkLAP hydrolytic activity, percentage of control without inhibitor: Leu-MCA substrate; for effect of divalent cation on pkLAP activity: Leu-AMC substrate
T1 construct: purchased Sigma; host or cells: porcine kidney
T1 sequence (P15145 1-963): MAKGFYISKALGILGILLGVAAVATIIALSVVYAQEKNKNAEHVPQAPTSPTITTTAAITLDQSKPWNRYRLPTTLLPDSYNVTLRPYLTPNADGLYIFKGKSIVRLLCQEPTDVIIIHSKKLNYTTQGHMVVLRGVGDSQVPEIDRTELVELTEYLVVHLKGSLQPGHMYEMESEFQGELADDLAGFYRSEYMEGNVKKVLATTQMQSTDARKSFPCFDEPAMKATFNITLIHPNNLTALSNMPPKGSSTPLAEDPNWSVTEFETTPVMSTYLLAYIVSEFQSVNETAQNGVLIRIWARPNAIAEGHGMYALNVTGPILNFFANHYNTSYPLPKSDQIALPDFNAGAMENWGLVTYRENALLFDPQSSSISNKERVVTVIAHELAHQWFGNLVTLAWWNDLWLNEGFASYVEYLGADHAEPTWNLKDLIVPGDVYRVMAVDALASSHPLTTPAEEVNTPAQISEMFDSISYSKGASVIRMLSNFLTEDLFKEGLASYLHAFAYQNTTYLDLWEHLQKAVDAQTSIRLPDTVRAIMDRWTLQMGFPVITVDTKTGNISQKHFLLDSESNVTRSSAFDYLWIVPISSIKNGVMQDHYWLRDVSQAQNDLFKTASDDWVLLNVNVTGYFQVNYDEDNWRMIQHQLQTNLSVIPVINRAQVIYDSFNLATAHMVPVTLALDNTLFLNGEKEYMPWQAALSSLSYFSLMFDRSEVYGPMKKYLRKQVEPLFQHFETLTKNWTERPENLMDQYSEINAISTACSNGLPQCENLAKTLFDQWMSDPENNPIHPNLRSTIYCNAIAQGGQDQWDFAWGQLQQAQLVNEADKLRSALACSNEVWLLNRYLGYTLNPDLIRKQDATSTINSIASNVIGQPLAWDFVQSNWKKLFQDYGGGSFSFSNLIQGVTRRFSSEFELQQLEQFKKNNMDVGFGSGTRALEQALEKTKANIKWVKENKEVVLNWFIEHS
Procedure: as §1

[3] = target: fuLAP1 (Aspergillus fumigatus, UniProt Q5VJG6); format: biochemical; details: for fuLAP1 hydrolytic activity, percentage of control without any cation / fuLAP1 hydrolytic activity, percentage of control without inhibitor: Leu-MCA substrate; for effect of inhibitor on fuLAP1 activity: Leu-AMC 5 mM, inhibitor concentrations, pepstatin 0.1 mM
fuLAP1, sequence (Q5VJG6 15-388, looked up, natural form): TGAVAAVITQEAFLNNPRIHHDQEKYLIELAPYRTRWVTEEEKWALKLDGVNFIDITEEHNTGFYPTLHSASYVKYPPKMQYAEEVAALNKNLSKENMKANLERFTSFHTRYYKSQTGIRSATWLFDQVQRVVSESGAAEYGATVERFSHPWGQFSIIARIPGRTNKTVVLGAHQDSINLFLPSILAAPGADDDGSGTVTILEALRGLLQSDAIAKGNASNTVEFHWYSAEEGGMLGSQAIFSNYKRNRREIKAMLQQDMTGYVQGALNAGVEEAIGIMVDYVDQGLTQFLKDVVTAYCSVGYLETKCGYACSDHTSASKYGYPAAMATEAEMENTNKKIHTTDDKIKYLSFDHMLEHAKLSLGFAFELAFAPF
Procedure: as §1

[4] = target: ruLAP1 (Trichophyton rubrum, UniProt Q5QHG5); format: biochemical; details: for ruLAP1 hydrolytic activity, percentage of control without any cation / ruLAP1 hydrolytic activity, percentage of control without inhibitor: Leu-MCA substrate; for effect of inhibitor on ruLAP1 activity: Leu-AMC 5 mM, inhibitor concentrations, pepstatin 0.1 mM
ruLAP1, sequence (Q5QHG5 19-373): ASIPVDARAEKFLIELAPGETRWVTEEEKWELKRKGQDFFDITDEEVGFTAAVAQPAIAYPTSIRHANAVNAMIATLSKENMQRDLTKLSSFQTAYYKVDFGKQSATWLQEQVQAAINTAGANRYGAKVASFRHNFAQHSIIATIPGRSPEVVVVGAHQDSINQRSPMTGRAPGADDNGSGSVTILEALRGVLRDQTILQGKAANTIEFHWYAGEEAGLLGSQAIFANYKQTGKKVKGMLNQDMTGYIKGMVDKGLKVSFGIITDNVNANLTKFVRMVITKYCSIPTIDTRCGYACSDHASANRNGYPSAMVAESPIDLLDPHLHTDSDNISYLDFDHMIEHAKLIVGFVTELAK
Procedure: as §1

[5] = target: ruLAP2 (Trichophyton rubrum, UniProt Q5QHG6); format: biochemical; details: for ruLAP2 hydrolytic activity, percentage of control without any cation / ruLAP2 hydrolytic activity, percentage of control without inhibitor: Leu-MCA substrate; for effect of inhibitor on ruLAP2 activity: Leu-AMC 5 mM, inhibitor concentrations
ruLAP2, sequence (Q5QHG6 22-495): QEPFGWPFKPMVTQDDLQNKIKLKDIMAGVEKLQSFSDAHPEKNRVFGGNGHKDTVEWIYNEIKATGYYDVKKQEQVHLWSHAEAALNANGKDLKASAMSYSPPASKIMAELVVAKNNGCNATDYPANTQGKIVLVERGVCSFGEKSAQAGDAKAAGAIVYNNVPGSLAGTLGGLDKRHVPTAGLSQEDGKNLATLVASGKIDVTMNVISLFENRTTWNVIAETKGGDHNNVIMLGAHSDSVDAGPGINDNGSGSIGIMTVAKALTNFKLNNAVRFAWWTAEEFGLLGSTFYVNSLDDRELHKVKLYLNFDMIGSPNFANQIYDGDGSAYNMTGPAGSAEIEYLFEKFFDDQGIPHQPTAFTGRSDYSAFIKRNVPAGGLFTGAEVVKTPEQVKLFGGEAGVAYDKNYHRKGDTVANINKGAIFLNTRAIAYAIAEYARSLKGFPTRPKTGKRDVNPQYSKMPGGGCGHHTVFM
Procedure: as §1

[6] = system: all the LAPs tested (ruLAP1, ruLAP2, fuLAP1, fuLAP2, pkLAP); format: biochemical; details: Leu-AMC 5 mM; amastatin 500 μM; ortho-phenantroline 1 and 5 mM; others as
Procedure: as §1

[7] = Leu-AMC 5 mM, inhibitor concentrations

Structure (SMILES): [Cl][Mn][Cl] [Mn^++, MnCl2]
- effect of divalent cation on fuLAP2 activity ([1]; Leu-AMC substrate): activated
- fuLAP2 hydrolytic activity, percentage of control without any cation ([1]; cation salt 0.5 mM): 84.3%
- fuLAP2 hydrolytic activity, percentage of control without any cation ([1]; cation salt 1 mM): 140.2%
- pkLAP hydrolytic activity, percentage of control without any cation ([2]; cation salt 0.5 mM): 157.6%
- pkLAP hydrolytic activity, percentage of control without any cation ([2]; cation salt 1 mM): 165.8%
- effect of divalent cation on fuLAP1 activity ([3]; Leu-AMC substrate): inhibited
- fuLAP1 hydrolytic activity, percentage of control without any cation ([3]; cation salt 0.5 mM): 25.9%
- fuLAP1 hydrolytic activity, percentage of control without any cation ([3]; cation salt 1 mM): 28.4%
- ruLAP1 hydrolytic activity, percentage of control without any cation ([4]; cation salt 0.5 mM): 120.7%
- ruLAP1 hydrolytic activity, percentage of control without any cation ([4]; cation salt 1 mM): 105.2%
- ruLAP2 hydrolytic activity, percentage of control without any cation ([5]; cation salt 0.5 mM): 77.5%
- ruLAP2 hydrolytic activity, percentage of control without any cation ([5]; cation salt 1 mM): 86.8%

Structure (SMILES): [Cl][Ni][Cl] [Ni, NiCl2]
- fuLAP2 hydrolytic activity, percentage of control without any cation ([1]; cation salt 0.5 mM): 98.4%
- fuLAP2 hydrolytic activity, percentage of control without any cation ([1]; cation salt 1 mM): 149.3%
- effect of divalent cation on pkLAP activity [2]: highly activated
- pkLAP hydrolytic activity, percentage of control without any cation ([2]; cation salt 0.5 mM): 1187.7%
- pkLAP hydrolytic activity, percentage of control without any cation ([2]; cation salt 1 mM): 1158.7%
- fuLAP1 hydrolytic activity, percentage of control without any cation ([3]; cation salt 0.5 mM): 51.7%
- fuLAP1 hydrolytic activity, percentage of control without any cation ([3]; cation salt 1 mM): 37.2%
- ruLAP1 hydrolytic activity, percentage of control without any cation ([4]; cation salt 0.5 mM): 74.8%
- ruLAP1 hydrolytic activity, percentage of control without any cation ([4]; cation salt 1 mM): 58.1%
- ruLAP2 hydrolytic activity, percentage of control without any cation ([5]; cation salt 0.5 mM): 130.5%
- ruLAP2 hydrolytic activity, percentage of control without any cation ([5]; cation salt 1 mM): 147.9%

Structure (SMILES): [Cl-].[Cl-].[Zn+2] [Zn, ZnCl2]
- fuLAP2 hydrolytic activity, percentage of control without any cation ([1]; cation salt 0.5 mM): 51.4%
- fuLAP2 hydrolytic activity, percentage of control without any cation ([1]; cation salt 1 mM): 119.5%
- effect of divalent cation on pkLAP activity [2]: highly activated
- pkLAP hydrolytic activity, percentage of control without any cation ([2]; cation salt 0.5 mM): 437.6%
- pkLAP hydrolytic activity, percentage of control without any cation ([2]; cation salt 1 mM): 297.9%
- fuLAP1 hydrolytic activity, percentage of control without any cation ([3]; cation salt 0.5 mM): 60.7%
- fuLAP1 hydrolytic activity, percentage of control without any cation ([3]; cation salt 1 mM): 53.2%
- ruLAP1 hydrolytic activity, percentage of control without any cation ([4]; cation salt 0.5 mM): 43.0%
- ruLAP1 hydrolytic activity, percentage of control without any cation ([4]; cation salt 1 mM): 68.9%
- ruLAP2 hydrolytic activity, percentage of control without any cation ([5]; cation salt 0.5 mM): 77.9%
- ruLAP2 hydrolytic activity, percentage of control without any cation ([5]; cation salt 1 mM): 88.9%

Structure (SMILES): CC(C)C[C@@H](N)[C@H](O)C(=O)N[C@H](C(=O)N[C@H](C(=O)N[C@@H](CC(=O)O)C(=O)O)C(C)C)C(C)C [amastatin]
- fuLAP2 hydrolytic activity, percentage of control without inhibitor ([1]; inhibitor 500 μM): 0%
- effect of inhibitor on all the LAPs tested [6]: strongly or totally inhibited

Structure (SMILES): N=C(N)c1ccccc1 [benzamidine]
- fuLAP2 hydrolytic activity, percentage of control without inhibitor ([1]; inhibitor 40 μM): 91%
- effect of inhibitor on all the LAPs tested [6]: no clear inhibitory effects

Structure (SMILES): CC(C)C[C@H](NC(=O)[C@@H](O)[C@H](N)Cc1ccccc1)C(=O)O [bestatin]
- effect of inhibitor on fuLAP2 activity [1, 7]: only partial inhibitory effect
- fuLAP2 hydrolytic activity, percentage of control without inhibitor ([1]; inhibitor 500 μM): 88%
- effect of inhibitor on pkLAP activity [2, 7]: inhibited
- effect of inhibitor on fuLAP1 activity [3]: inhibited
- effect of inhibitor on ruLAP1 activity [4]: inhibited
- effect of inhibitor on ruLAP2 activity [5]: only partial inhibitory effect

Structure (SMILES): c1cnc2c(c1)ccc1cccnc12 [orthophenanthroline]
- fuLAP2 hydrolytic activity, percentage of control without inhibitor ([1]; inhibitor 1 mM): 0%
- fuLAP2 hydrolytic activity, percentage of control without inhibitor ([1]; inhibitor 5 mM): 0%
- pkLAP hydrolytic activity, percentage of control without inhibitor ([2]; inhibitor 1 mM): 0%
- pkLAP hydrolytic activity, percentage of control without inhibitor ([2]; inhibitor 5 mM): 0%
- fuLAP1 hydrolytic activity, percentage of control without inhibitor ([3]; inhibitor 1 mM): 0%
- fuLAP1 hydrolytic activity, percentage of control without inhibitor ([3]; inhibitor 5 mM): 0%
- ruLAP1 hydrolytic activity, percentage of control without inhibitor ([4]; inhibitor 1 mM): 0%
- ruLAP1 hydrolytic activity, percentage of control without inhibitor ([4]; inhibitor 5 mM): 0%
- ruLAP2 hydrolytic activity, percentage of control without inhibitor ([5]; inhibitor 1 mM): 0%
- ruLAP2 hydrolytic activity, percentage of control without inhibitor ([5]; inhibitor 5 mM): 0%

Structure (SMILES): O=C(O)c1cc[c]([Hg][Cl])cc1 [p-chloromercuribenzoate, p-chloromercuribenzoic acid]
- fuLAP2 hydrolytic activity, percentage of control without inhibitor ([1]; inhibitor 500 μM): 96%
- pkLAP hydrolytic activity, percentage of control without inhibitor ([2]; inhibitor 500 μM): 59%
- fuLAP1 hydrolytic activity, percentage of control without inhibitor ([3]; inhibitor 500 μM): 90%
- ruLAP1 hydrolytic activity, percentage of control without inhibitor ([4]; inhibitor 500 μM): 32%
- effect of inhibitor on ruLAP2 activity [5]: blunted the activity
- ruLAP2 hydrolytic activity, percentage of control without inhibitor ([5]; inhibitor 500 μM): 21%

Structure (SMILES): CC(C)CC(=O)N[C@H](C(=O)N[C@H](C(=O)N[C@@H](CC(C)C)[C@@H](O)CC(=O)N[C@@H](C)C(=O)N[C@@H](CC(C)C)[C@@H](O)CC(=O)O)C(C)C)C(C)C [pepstatin, pepstatin A] (Isovaleryl-VV[Sta]A[Sta]-OH)
- fuLAP2 hydrolytic activity, percentage of control without inhibitor ([1]; inhibitor 100 μM): 73%
- effect of inhibitor on fuLAP1 activity [3]: some sensitivity
- effect of inhibitor on ruLAP1 activity [4]: some sensitivity
